Laboratory results published in the NIST ThermoML archive (doi:10.1021/je060271a).
Several values for one entry are separate records, joined by “and”; a condition that tells them apart may be missing. Identical values can stand only once.

Conditions: Liquid, Vibrating tube method

CCCCCC(=O)OCC(COC(=O)CCCCC)(COC(=O)CCCCC)COC(=O)CCCCC [pentaerythritol tetrahexanoate]
Conditions	mass density
283.14 K, 6785.3 kPa	1008.1 kg/m3
283.14 K, 6787.6 kPa	1008 kg/m3 and 1008.2 kg/m3
283.14 K, 6787.7 kPa	1008.1 kg/m3
283.14 K, 6787.9 kPa	1008.1 kg/m3 and 1008 kg/m3
283.14 K, 30862 kPa	1021 kg/m3
283.14 K, 30898 kPa	1021 kg/m3
283.14 K, 30915 kPa	1021 kg/m3
283.14 K, 32175 kPa	1021.8 kg/m3
283.14 K, 32194 kPa	1021.7 kg/m3
283.14 K, 32218 kPa	1021.7 kg/m3
283.14 K, 32238 kPa	1021.8 kg/m3
283.14 K, 32258 kPa	1021.8 kg/m3
283.14 K, 32282 kPa	1021.8 kg/m3
283.14 K, 32303 kPa	1021.7 kg/m3
283.14 K, 32324 kPa	1021.8 kg/m3
283.15 K, 90.7 kPa	1004 kg/m3
283.15 K, 90.8 kPa	1004.1 kg/m3
283.15 K, 90.9 kPa	1004.2 kg/m3
283.15 K, 96 kPa	1004.2 kg/m3
283.15 K, 96.1 kPa	1004.2 kg/m3
283.15 K, 96.4 kPa	1004.1 kg/m3 and 1004.2 kg/m3
283.15 K, 96.6 kPa	1004.2 kg/m3
283.15 K, 96.7 kPa	1004.2 kg/m3
283.15 K, 96.9 kPa	1004.2 kg/m3
283.15 K, 97.3 kPa	1004.1 kg/m3
283.15 K, 97.4 kPa	1004.1 kg/m3 and 1004.2 kg/m3
283.15 K, 97.6 kPa	1004 kg/m3 and 1004.2 kg/m3
283.15 K, 99.3 kPa	1004.2 kg/m3
283.15 K, 101.4 kPa	1004.2 kg/m3
283.15 K, 101.6 kPa	1004.2 kg/m3
283.15 K, 102.1 kPa	1004.2 kg/m3
283.15 K, 102.2 kPa	1004.1 kg/m3 and 1004.2 kg/m3
283.15 K, 106.2 kPa	1004.2 kg/m3
283.15 K, 106.9 kPa	1004.1 kg/m3
283.15 K, 107 kPa	1004.2 kg/m3
283.15 K, 107.4 kPa	1004 kg/m3
283.15 K, 107.5 kPa	1004.1 kg/m3
283.15 K, 107.7 kPa	1004.2 kg/m3
283.15 K, 107.9 kPa	1004.2 kg/m3 and 1004.3 kg/m3
283.15 K, 111.3 kPa	1004.1 kg/m3
283.15 K, 111.5 kPa	1004.2 kg/m3
283.15 K, 111.7 kPa	1004.3 kg/m3
283.15 K, 112 kPa	1004.2 kg/m3
283.15 K, 112.3 kPa	1004.1 kg/m3
283.15 K, 112.4 kPa	1004.2 kg/m3
283.15 K, 112.5 kPa	1004.1 kg/m3
283.15 K, 112.7 kPa	1004.2 kg/m3 and 1004.1 kg/m3
283.15 K, 113 kPa	1004.1 kg/m3 and 1004.2 kg/m3
283.15 K, 113.2 kPa	1004.3 kg/m3 and 1004.1 kg/m3
283.15 K, 113.4 kPa	1004.2 kg/m3
283.15 K, 113.5 kPa	1004.1 kg/m3
283.15 K, 113.9 kPa	1004.2 kg/m3
283.15 K, 114.1 kPa	1004.2 kg/m3
283.15 K, 114.4 kPa	1004.1 kg/m3
283.15 K, 114.6 kPa	1004.1 kg/m3
283.15 K, 114.8 kPa	1004.3 kg/m3
283.15 K, 114.9 kPa	1004.2 kg/m3 and 1004.1 kg/m3
283.15 K, 115.1 kPa	1004.2 kg/m3
283.15 K, 115.4 kPa	1004.2 kg/m3
283.15 K, 115.5 kPa	1004.2 kg/m3
283.15 K, 115.8 kPa	1004.2 kg/m3
283.15 K, 116 kPa	1004.2 kg/m3
283.15 K, 116.3 kPa	1004.2 kg/m3
283.15 K, 116.5 kPa	1004.1 kg/m3
283.15 K, 116.7 kPa	1004.2 kg/m3
283.15 K, 116.8 kPa	1004.2 kg/m3
283.15 K, 117.2 kPa	1004.1 kg/m3
283.15 K, 117.3 kPa	1004.2 kg/m3 and 1004.3 kg/m3
283.15 K, 117.5 kPa	1004.2 kg/m3
283.15 K, 117.9 kPa	1004.2 kg/m3 and 1004.3 kg/m3
283.15 K, 118 kPa	1004.1 kg/m3
283.15 K, 118.2 kPa	1004.2 kg/m3
283.15 K, 118.4 kPa	1004.2 kg/m3
283.15 K, 118.7 kPa	1004.2 kg/m3
283.15 K, 118.9 kPa	1004.2 kg/m3
283.15 K, 119.1 kPa	1004.4 kg/m3 and 1004.2 kg/m3
283.15 K, 119.3 kPa	1004 kg/m3
283.15 K, 119.6 kPa	1004.2 kg/m3
283.15 K, 119.8 kPa	1004.1 kg/m3
283.15 K, 119.9 kPa	1004.3 kg/m3 and 1004.2 kg/m3
283.15 K, 120.1 kPa	1004.1 kg/m3
283.15 K, 121.3 kPa	1004.2 kg/m3
283.15 K, 121.7 kPa	1004.2 kg/m3 and 1004.1 kg/m3
283.15 K, 122 kPa	1004.3 kg/m3
283.15 K, 122.4 kPa	1004.1 kg/m3
283.15 K, 122.5 kPa	1004.3 kg/m3
283.15 K, 122.9 kPa	1004.1 kg/m3
283.15 K, 123 kPa	1004.2 kg/m3
283.15 K, 123.2 kPa	1004.2 kg/m3
283.15 K, 123.6 kPa	1004.3 kg/m3 and 1004.2 kg/m3
283.15 K, 123.7 kPa	1004.1 kg/m3
283.15 K, 123.9 kPa	1004.2 kg/m3 and 1004.1 kg/m3
283.15 K, 124.3 kPa	1004.2 kg/m3
283.15 K, 124.6 kPa	1004 kg/m3
283.15 K, 124.9 kPa	1004.1 kg/m3
283.15 K, 125 kPa	1004.2 kg/m3
283.15 K, 125.1 kPa	1004.1 kg/m3
283.15 K, 125.3 kPa	1004.2 kg/m3
283.15 K, 125.8 kPa	1004 kg/m3
283.15 K, 126 kPa	1004.3 kg/m3
283.15 K, 126.2 kPa	1004.2 kg/m3 and 1004.1 kg/m3
283.15 K, 127.9 kPa	1004.2 kg/m3
283.15 K, 128.1 kPa	1004.3 kg/m3
283.15 K, 128.4 kPa	1004.3 kg/m3
283.15 K, 134 kPa	1004.1 kg/m3
283.15 K, 134.1 kPa	1004.2 kg/m3
283.15 K, 134.3 kPa	1004.1 kg/m3
283.15 K, 134.5 kPa	1004.3 kg/m3
283.15 K, 135 kPa	1004.2 kg/m3
283.15 K, 135.2 kPa	1004.2 kg/m3
283.15 K, 135.3 kPa	1004.1 kg/m3
283.15 K, 136 kPa	1004.2 kg/m3
283.15 K, 136.4 kPa	1004.2 kg/m3
283.15 K, 136.6 kPa	1004.2 kg/m3 and 1004.1 kg/m3
283.15 K, 136.7 kPa	1004.3 kg/m3
283.15 K, 136.9 kPa	1004.1 kg/m3
283.15 K, 137.4 kPa	1004.2 kg/m3
283.15 K, 137.6 kPa	1004.3 kg/m3 and 1004.2 kg/m3
283.15 K, 137.9 kPa	1004.3 kg/m3
283.15 K, 138.1 kPa	1004.2 kg/m3
283.15 K, 138.8 kPa	1004.2 kg/m3
283.15 K, 139 kPa	1004.1 kg/m3 and 1004.3 kg/m3
283.15 K, 139.2 kPa	1004.3 kg/m3 and 1004.2 kg/m3
283.15 K, 139.3 kPa	1004.2 kg/m3
283.15 K, 139.7 kPa	1004.2 kg/m3 and 1004.1 kg/m3 and 1004.3 kg/m3
283.15 K, 140.4 kPa	1004.3 kg/m3
283.15 K, 140.6 kPa	1004.3 kg/m3
283.15 K, 140.7 kPa	1004.2 kg/m3
283.15 K, 141.1 kPa	1004.2 kg/m3
283.15 K, 141.4 kPa	1004.2 kg/m3
283.15 K, 141.6 kPa	1004.2 kg/m3
283.15 K, 142.1 kPa	1004.3 kg/m3
283.15 K, 142.5 kPa	1004.2 kg/m3
283.15 K, 143 kPa	1004.2 kg/m3 and 1004.1 kg/m3
283.15 K, 143.2 kPa	1004.2 kg/m3
283.15 K, 144 kPa	1004.2 kg/m3 and 1004.1 kg/m3
283.15 K, 144.2 kPa	1004.3 kg/m3
283.15 K, 144.4 kPa	1004.1 kg/m3
283.15 K, 144.7 kPa	1004.1 kg/m3
283.15 K, 145.4 kPa	1004.2 kg/m3
283.15 K, 145.9 kPa	1004.3 kg/m3
283.15 K, 146.3 kPa	1004.2 kg/m3
283.15 K, 146.6 kPa	1004.2 kg/m3
283.15 K, 147.3 kPa	1004.2 kg/m3
